Source: patent publication US20100035862A1, “NOVEL AZA-CYCLIC INDOLE-2-CARBOXAMIDES AND METHODS OF USE THEREOF” (ABBOTT LABORATORIES, priority 2008, published 2010)

Target: T1, human α4β2 (Homo sapiens, UniProt P17787+P43681)
T1 construct: expressed in transfected cells
Assay: Calcium flux assay (FLIPR) in HEK 293 cells expressing NNR subtype; potentiation of submaximal agonist response
Type: cell-based
Conditions: α4β2 PAM; response to submaximal agonist (EC20-30%) such as nicotine
From the text: One manner to characterize α4β2 PAM activity is by characterization in clonal cell lines (for example, human embryonic kidney 293 cells) expressing the human neuronal nicotinic acetylcholine receptor subtype α4β2, particularly by use of Fluorescent Image Plate Reader technology. Effects on calcium flux or membrane potential changes can be assessed. Such assays have been reported and further details for carrying out, the assays can be obtained in International Publication No. WO 2006/114400. Another method to identify and characterize allosteric modulator activity is by expressing the α4β2 subunits in Xenopus oocytes, and by measuring electrophysiological effects on ligand-evoked current responses as previously described in Curtis, L., et al., Molecular Pharmacology, 61: 127-135, 2002.
To determine the effectiveness of representative compounds of this invention as ligands for α4β2 PAM activity, the compounds of the invention can be evaluated according to the Calcium Flux Assay described below.
Calcium Flux Assays Using Cells Expressing NNR Subtypes
Human embryonic kidney (HEK) 293 cells stably expressing human α4β2 or (3β4 combinations are grown to confluency in 162 cm^2 tissue culture flasks in DMEM media supplemented with 10% FBS and 25 μg/mL zeocin and 200 μg/mL hygromycin B. Cells expressing rat or ferret subunits may also be used. For assessing α3* or α7* selectivity, IMR-32 cells may also be used. IMR-32 neuroblastoma cells (ATCC) are grown to confluency in 162 cm^2 tissue culture flasks in minimum essential media supplemented with 10% FBS and 1 mM sodium pyruvate, 1% non-essential amino acids and 1% antibiotic-antimycotic. For the calcium flux assay, c cells are then dissociated using cell dissociation buffer and 100-150 μL per well of 3.5×10^5 cells/mL cell suspension (˜50,000-100,000 cells/well) was plated into 96-well black plates (poly-D-lysine precoated) with clear bottom and maintained for 24-48 hours in a tissue culture incubator at 37° C. under an atmosphere of 5% CO2: 95% air. Other clonal cell lines or primary cell cultures that express endogenous α4* nicotinic receptors may also be used in this assay. Calcium flux was measured using calcium-3 assay kit (Molecular Devices, Sunnyvale, Calif.) or fluo-4 (Invitrogen). A stock solution of the dye was prepared by dissolving each vial supplied by the vendor in Hank's balanced-salt solution buffer (HBSS) or 150 mM NMDG, 20 mM calcium chloride containing 10 mM HEPES. The stock-solution was diluted 1:20 using a the same buffer before use. The growth media was removed from the cells. The cells were loaded with 100 μL of the dye per well and incubated at room temperature for up to one hour for HEK 293 clonal stable cell lines or 30 minutes-45 minutes at 37° C. for IMR-32 cells. Fluorescence measurements were read simultaneously from all the wells by a Fluorometic Imaging Plate Reader (FLIPR) at an excitation wavelength of 480 nm and an emission wavelength of 520 nm. Baseline fluorescence was measured for the first 6 seconds at which 3× concentrations of modulator/test compounds were added to the cell plate at 50 μL and incubated for five minutes. The fluorescence intensity was captured every second for the first 1 minute followed by every 5 seconds for an additional 4 minutes. This procedure was followed by 50 μL of 4× concentration of agonist and readings were taken for a period of 3-5 minutes as described above.
The ability of test compounds to positively modulate the response (i.e., increase the response) induced by a submaximal concentration of agonist (EC20-30%) such as nicotine is measured. Potentiation is measured based on peak fluorescence responses. by screening compounds at fixed concentrations or in a concentration-response manner to derive, EC50 values. The concentration dependence of changes in fluorescence responses is fitted by nonlinear regression analysis (GraphPad Prism, San Diego, Calif.) to obtain EC50 values. […]

T1 sequence (P43681 29-627 limits assumed): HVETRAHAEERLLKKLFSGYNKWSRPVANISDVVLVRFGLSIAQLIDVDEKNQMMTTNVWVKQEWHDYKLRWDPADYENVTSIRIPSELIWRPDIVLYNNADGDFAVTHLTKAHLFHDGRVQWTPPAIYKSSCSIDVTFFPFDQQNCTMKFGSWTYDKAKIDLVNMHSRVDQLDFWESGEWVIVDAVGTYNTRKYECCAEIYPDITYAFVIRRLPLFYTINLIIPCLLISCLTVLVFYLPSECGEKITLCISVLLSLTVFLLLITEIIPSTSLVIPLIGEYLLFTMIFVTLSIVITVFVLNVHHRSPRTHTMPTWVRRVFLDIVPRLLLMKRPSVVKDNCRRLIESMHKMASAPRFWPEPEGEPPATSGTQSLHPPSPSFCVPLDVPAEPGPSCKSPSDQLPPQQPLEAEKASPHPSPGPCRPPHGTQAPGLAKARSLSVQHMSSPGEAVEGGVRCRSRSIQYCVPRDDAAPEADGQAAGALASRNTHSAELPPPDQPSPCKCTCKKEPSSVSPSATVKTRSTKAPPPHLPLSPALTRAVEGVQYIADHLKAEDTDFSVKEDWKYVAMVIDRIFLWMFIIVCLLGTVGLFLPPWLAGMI
T1 sequence (P17787 26-502): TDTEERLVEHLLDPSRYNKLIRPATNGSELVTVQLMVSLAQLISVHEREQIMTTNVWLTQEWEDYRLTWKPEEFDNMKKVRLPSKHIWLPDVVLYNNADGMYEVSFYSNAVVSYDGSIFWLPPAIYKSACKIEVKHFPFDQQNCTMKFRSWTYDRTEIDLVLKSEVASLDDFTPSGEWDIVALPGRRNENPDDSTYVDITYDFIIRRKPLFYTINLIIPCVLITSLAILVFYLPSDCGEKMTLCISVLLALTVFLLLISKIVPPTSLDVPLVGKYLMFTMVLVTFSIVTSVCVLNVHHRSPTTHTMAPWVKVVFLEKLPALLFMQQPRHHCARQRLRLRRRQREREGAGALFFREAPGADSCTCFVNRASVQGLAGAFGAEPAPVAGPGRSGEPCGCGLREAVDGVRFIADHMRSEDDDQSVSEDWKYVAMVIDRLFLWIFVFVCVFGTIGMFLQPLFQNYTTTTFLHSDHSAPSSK

| Compound | Activity (allostertc effects—potentiation of fluorescence responses) |
| --- | --- |
| CC(C)(C)c1ccc2cc(C(=O)N[C@@H]3CCNC3)[nH]c2c1 [Example 10, (R)-6-tert-butyl-N-(pyrrolidin-3-yl)-1H-indole-2-carboxamide] | a (“a” denotes active compounds (>100%)) |
| O=C(N[C@@H]1CCNC1)c1cc2ccc(-c3ccccc3)cc2[nH]1 [Example 13, (R)-6-phenyl-N-(pyrrolidin-3-yl)-1H-indole-2-carboxamide] | a (“a” denotes active compounds (>100%)) |
| CN1CC[C@@H](NC(=O)c2cc3cc(Cl)ccc3[nH]2)C1 [Example 31] | a (“a” denotes active compounds (>100%)) |
| CN1CC[C@H](NC(=O)c2cc3c(Cl)cc(Cl)cc3[nH]2)C1 [Example 40, (S)-4,6-dichloro-N-(1-methylpyrrolidin-3-yl)-1H-indole-2-carboxamide] | a (“a” denotes active compounds (>100%)) |
| O=C(N[C@@H]1CCCNC1)c1cc2c(Cl)cc(Cl)cc2[nH]1 [Example 114, (R)-4,6-dichloro-N-(piperidin-3-yl)-1H-indole-2-carboxamide] | a (“a” denotes active compounds (>100%)) |

Results, then the molecule that gave them:

| Activity (allostertc effects—potentiation of fluorescence responses) | Compound |
| --- | --- |
| a (“a” denotes active compounds (>100%)) | Cc1ccc(C)c2c(C)c(C(=O)N[C@@H]3CCNC3)[nH]c12 [Example 1, (R)-3,4,7-trimethyl-N-(pyrrolidin-3-yl)-1H-indole-2-carboxamide] |
| a (“a” denotes active compounds (>100%)) | Cc1ccc(C)c2c(C)c(C(=O)N[C@@H]3CCCNC3)[nH]c12 [Example 108, (R)-3,4,7-trimethyl-N-(piperidin-3-yl)-1H-indole-2-carboxamide] |
| a (“a” denotes active compounds (>100%)) | Cc1ccc(C)c2c(C)c(C(=O)N[C@@H]3CCCN(C)C3)[nH]c12.Cc1ccc(S(=O)(=O)O)cc1 [Example 109, (R)-3,4,7-trimethyl-N-(1-methylpiperidin-3-yl)-1H-indole-2-carboxamide tosylate] |
